Measurements published in PubChem BioAssay AID2060336 (Molecular Pharmacology Branch, DTP, NCI, 2025).
Values joined by “and” are separate entries in the source; they are usually repeats but may differ in a detail not shown here. Identical values can stand only once. Blank lines part the entries; values can stand above or below the compound they belong to.

Test system: 958767-090-R-J1-PDC spheroid growth
Experiment: Anticancer human tumor 958767-090-R-J1-PDC patient-derived head and neck squamous carcinoma cell line growth inhibition [IpAb]
Conditions: spheroids with HUVEC and MSC; for viability, T/C: stronger effect = lower value
Outline: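 Multi-cell spheroids of 60% tumour cells, 25% HUVEC and 15% MSC in ultra-low-attachment U-bottom wells, treated with agents combined with ipatasertib or abemaciclib. Half-log ranges top out near clinical Cmax, or 10 microM when Cmax is unknown.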

[1] = curve of first compound, second compound 0.1 µM
[2] = curve of first compound, second compound 0.316 µM
[3] = curve of first compound, second compound 1 µM
[4] = curve of first compound, second compound 3.16 µM
[5] = curve of first compound, second compound 10 µM
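Further: spheroids exposed to agents for 7 days.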
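Wherever viability, T/C is given: 100% = DMSO vehicle control wells.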

SMILES: Cn1cnc2c(F)c(Nc3ccc(Br)cc3Cl)c(C(=O)NOCCO)cc21 + CC(C)NCC(C(=O)N1CCN(c2ncnc3c2C(C)CC3O)CC1)c1ccc(Cl)cc1
IC50 [1]: 18.2 nM
IC50 [2]: < 9.49 nM
IC50 [3]: < 9.49 nM
IC50 [4]: < 9.49 nM
IC50 [5]: < 9.49 nM
viability, T/C (second compound 0.1 µM, first compound 0.00949 µM): 62%
viability, T/C (second compound 0.1 µM, first compound 0.03 µM): 38.9%
viability, T/C (second compound 0.1 µM, first compound 0.0949 µM): 30.5%
viability, T/C (second compound 0.1 µM, first compound 0.3 µM): 20.8%
viability, T/C (second compound 0.1 µM, first compound 0.949 µM): 17.7%
viability, T/C (second compound 0.1 µM, first compound 3 µM): 9.06%
viability, T/C (second compound 0.316 µM, first compound 0.00949 µM): 36%
viability, T/C (second compound 0.316 µM, first compound 0.03 µM): 26.8%
viability, T/C (second compound 0.316 µM, first compound 0.0949 µM): 19.2%
viability, T/C (second compound 0.316 µM, first compound 0.3 µM): 14.3%
viability, T/C (second compound 0.316 µM, first compound 0.949 µM): 9.47%
viability, T/C (second compound 0.316 µM, first compound 3 µM): 3.29%
viability, T/C (second compound 1 µM, first compound 0.00949 µM): 28.1%
viability, T/C (second compound 1 µM, first compound 0.03 µM): 21.7%
viability, T/C (second compound 1 µM, first compound 0.0949 µM): 15.2%
viability, T/C (second compound 1 µM, first compound 0.3 µM): 10.1%
viability, T/C (second compound 1 µM, first compound 0.949 µM): 4.39%
viability, T/C (second compound 1 µM, first compound 3 µM): 1.34%
viability, T/C (second compound 3.16 µM, first compound 0.00949 µM): 30.4%
viability, T/C (second compound 3.16 µM, first compound 0.03 µM): 18.6%
viability, T/C (second compound 3.16 µM, first compound 0.0949 µM): 10.1%
viability, T/C (second compound 3.16 µM, first compound 0.3 µM): 6.15%
viability, T/C (second compound 3.16 µM, first compound 0.949 µM): 1.7%
viability, T/C (second compound 3.16 µM, first compound 3 µM): 0.65%
viability, T/C (second compound 10 µM, first compound 0.00949 µM): 21.7%
viability, T/C (second compound 10 µM, first compound 0.03 µM): 9.62%
viability, T/C (second compound 10 µM, first compound 0.0949 µM): 4.16%
viability, T/C (second compound 10 µM, first compound 0.3 µM): 1.43%
viability, T/C (second compound 10 µM, first compound 0.949 µM): 0.55%
viability, T/C (second compound 10 µM, first compound 3 µM): 0.67%

IC50 (curve of compound): 10.7 nM and 18.2 nM
SMILES: COc1c(OCCCN2CCOCC2)ccc2c3n(c(=NC(=O)c4cnc(N)nc4)nc12)CCN3
viability, T/C (compound 0.00316 µM): 64.4% and 71.9%
viability, T/C (compound 0.01 µM): 50% and 60.7%
viability, T/C (compound 0.0316 µM): 34.6% and 39.4%
viability, T/C (compound 0.1 µM): 15.9% and 25.2%
viability, T/C (compound 0.316 µM): 8.95% and 9.82%
viability, T/C (compound 1 µM): 4.88% and 4.05%

IC50 (curve of compound): 28.4 nM and 43.7 nM
SMILES: Cn1cnc2c(F)c(Nc3ccc(Br)cc3Cl)c(C(=O)NOCCO)cc21
viability, T/C (compound 0.00949 µM): 73% and 64.2%
viability, T/C (compound 0.03 µM): 48.8% and 52.3%
viability, T/C (compound 0.0949 µM): 32.5% and 42.5%
viability, T/C (compound 0.3 µM): 30.8% and 35.8%
viability, T/C (compound 0.949 µM): 31% and 28.7%
viability, T/C (compound 3 µM): 17.2% and 19.8%

SMILES: CCCS(=O)(=O)Nc1ccc(F)c(C(=O)c2c[nH]c3ncc(-c4ccc(Cl)cc4)cc23)c1F + CC(C)NCC(C(=O)N1CCN(c2ncnc3c2C(C)CC3O)CC1)c1ccc(Cl)cc1
IC50 [1]: > 10000 nM
IC50 [2]: 9060 nM
IC50 [3]: 5370 nM
IC50 [4]: 3950 nM
IC50 [5]: < 31.6 nM
viability, T/C (second compound 0.1 µM, first compound 0.0316 µM): 93.3%
viability, T/C (second compound 0.1 µM, first compound 0.1 µM): 89.6%
viability, T/C (second compound 0.1 µM, first compound 0.316 µM): 94.7%
viability, T/C (second compound 0.1 µM, first compound 1 µM): 95.9%
viability, T/C (second compound 0.1 µM, first compound 3.16 µM): 86.9%
viability, T/C (second compound 0.1 µM, first compound 10 µM): 73.9%
viability, T/C (second compound 0.316 µM, first compound 0.0316 µM): 67.9%
viability, T/C (second compound 0.316 µM, first compound 0.1 µM): 78.2%
viability, T/C (second compound 0.316 µM, first compound 0.316 µM): 74.1%
viability, T/C (second compound 0.316 µM, first compound 1 µM): 59.6%
viability, T/C (second compound 0.316 µM, first compound 3.16 µM): 72.5%
viability, T/C (second compound 0.316 µM, first compound 10 µM): 48.2%
viability, T/C (second compound 1 µM, first compound 0.0316 µM): 68.4%
viability, T/C (second compound 1 µM, first compound 0.1 µM): 61.2%
viability, T/C (second compound 1 µM, first compound 0.316 µM): 59.8%
viability, T/C (second compound 1 µM, first compound 1 µM): 60.2%
viability, T/C (second compound 1 µM, first compound 3.16 µM): 60.8%
viability, T/C (second compound 1 µM, first compound 10 µM): 37.7%
viability, T/C (second compound 3.16 µM, first compound 0.0316 µM): 59.6%
viability, T/C (second compound 3.16 µM, first compound 0.1 µM): 56.9%
viability, T/C (second compound 3.16 µM, first compound 0.316 µM): 51%
viability, T/C (second compound 3.16 µM, first compound 1 µM): 51.7%
viability, T/C (second compound 3.16 µM, first compound 3.16 µM): 54.4%
viability, T/C (second compound 3.16 µM, first compound 10 µM): 32.7%
viability, T/C (second compound 10 µM, first compound 0.0316 µM): 46.1%
viability, T/C (second compound 10 µM, first compound 0.1 µM): 50.3%
viability, T/C (second compound 10 µM, first compound 0.316 µM): 54.9%
viability, T/C (second compound 10 µM, first compound 1 µM): 42.3%
viability, T/C (second compound 10 µM, first compound 3.16 µM): 40.8%
viability, T/C (second compound 10 µM, first compound 10 µM): 14.6%

IC50 (curve of compound): > 10000 nM
SMILES: CCCS(=O)(=O)Nc1ccc(F)c(C(=O)c2c[nH]c3ncc(-c4ccc(Cl)cc4)cc23)c1F
viability, T/C (compound 0.0316 µM): 86.3% and 103%
viability, T/C (compound 0.1 µM): 93.5% and 92.7%
viability, T/C (compound 0.316 µM): 92.7% and 98.5%
viability, T/C (compound 1 µM): 94.9% and 96%
viability, T/C (compound 3.16 µM): 98.5% and 96.4%
viability, T/C (compound 10 µM): 65.5% and 66.7%

IC50 (curve of compound): 159 nM and 172 nM
SMILES: CC(C)(C)c1cnc(CSc2cnc(NC(=O)C3CCNCC3)s2)o1
viability, T/C (compound 0.00949 µM): 106% and 118%
viability, T/C (compound 0.03 µM): 97% and 116%
viability, T/C (compound 0.0949 µM): 85.4% and 100%
viability, T/C (compound 0.3 µM): 6.79% and 3.17%
viability, T/C (compound 0.949 µM): 2.83% and 2.21%
viability, T/C (compound 3 µM): 2.61% and 2.81%
